Data taken from patent US9771378B2 (Denali Therapeutics, Inc., priority 2014, dated 2017).

System: Aβ42 (human neuroglioma H4 cells expressing human wild type APP751)
Assay: In vitro cell screening assay with sandwich ELISA quantification of Aβ42 peptide
Format: cell-based
Conditions: H4 cells stably expressing human wild type APP751; Pro293 chemically defined medium; compounds 0.003-10 μM; incubated overnight (16-18 h); supernatant Aβ42 by sandwich ELISA; normalized to DMSO and DAPT; read-out: Aβ42 H4 Prot Fre IC50
Procedure: Human neuroglioma H4 cells were transfected with a pcDNA3.1 plasmid expressing human wild type APP751 cDNA and a stable cell line was generated using G418 selection. Cells are plated at 15,000 cells/well in Costar 96-well plates and placed at 37° C. and 5% CO2. Six hours after plating, cells are washed three times with Pro293™ chemically defined medium, followed by addition of compounds (0.003-10 μM, final DMSO concentration of 0.33%). Plates were incubated overnight (16-18 h) and supernatant was removed for quantification of AP peptides by sandwich ELISA. Cytotoxicity was evaluated using Cell-Titer 96W AQueous One Solution Cell Proliferation Assay according to the manufacturer's protocol.
ELISA Measurements of Aβ Peptides
Aβ peptide levels were quantified by sandwich ELISA. 96-well plates are coated with C-terminal specific Aβ antibodies recognizing either Aβ37, Aβ38, Aβ40, Aβ42, Aβ43 or a N-terminal specific Aβ antibody to detect Aβ 1-x. Plates are then blocked overnight at 4° C. with 1% bovine serum albumin (BSA) in PBS-T. Plates are washed and 100 μl of cultured cell supernatant or synthetic Aβ peptide standards and a detection antibody (4G8-HRP) are applied to the blocked plate and incubated overnight at 4° C. The next day, wells are washed before the addition […] of detection substrate (TMB peroxidase). Plates are then read for absorbance at 450 nm on a Molecular Devices SpectraMax M5e Microplate Reader.
IC50 values were calculated from values reported as percent of DMSO controls using nonlinear regression, based on a sigmoidal dose-response (variable slope) model. GraphPAD software from Prism used for calculation.

## COc1cc(Nc2ncc3c(n2)N(C)C(c2cc(F)cc(F)c2)CO3)cnc1-n1cnc(C#N)c1 (single isomer, unassigned; (+)) [Example 211A, (+)-1-(5-((7-(3,5-difluorophenyl)-8-methyl-7,8-dihydro-6H-pyrimido [5,4-b] [1, 4]oxazin-2-yl)amino)-3-methoxypyridin-2-yl)-1H-imidazole-4-carbonitrile]
  IC50: 179 nM

## CN1c2nc(Nc3ccc(C#N)cc3)ncc2OCC1c1cc(F)cc(F)c1 (single isomer, unassigned; (-)) [Example 233B, (−)-4-((7-(3,5-difluorophenyl)-8-methyl-7,8-dihydro-6H-pyrimido [5,4-b] [1, 4]oxazin-2-yl)amino) benzonitrile]
  IC50: > 3000 nM

## COc1cc(Nc2ncc3c(n2)N(C)C(c2cc(F)cc(F)c2)CO3)ccc1-n1cnc(Cl)c1 (single isomer, unassigned; (-)) [Example 204A]
  IC50: 433 nM

## COc1cc(Nc2ncc3c(n2)N(C)C(c2ccc(F)cc2C)CO3)ccc1-n1cnc(C)c1 (single isomer, unassigned; (+)) [Example 117B]
  IC50: 22 nM

## COc1cc(Nc2ncc3c(n2)N2CC(F)(F)C[C@@H]2CO3)ccc1-n1cnc(C)c1 [Example 303, (R)-8,8-difluoro-N-(3-methoxy-4-(4-methyl-1H-imidazol-1-yl)phenyl)-6a, 7,8,9-tetrahydro-6H-pyrimido [5,4-b] pyrrolo [1,2-d] [1, 4] oxazin-2-amine]
  IC50: 131 nM

## COc1cc(Nc2ncc3c(n2)N(C)C(C(F)(F)F)CO3)ccc1-n1cnc(C)n1 (single isomer, unassigned; (-)) [Example 242A]
  IC50: 78 nM

## COc1nc(Nc2ncc3c(n2)N(C)C(c2cc(F)c(F)c(F)c2)CO3)c(F)cc1-c1cnn(C)c1 (racemic) [Example 196]
  IC50: 544 nM

## COc1cc(Nc2ncc3c(n2)N2CCOC[C@@H]2CO3)ccc1-n1cnc(C)c1 [Example 296]
  IC50: 759 nM

## COc1cc(Nc2ncc3c(n2)N(C)C(c2cc(F)c(F)c(F)c2)CO3)cnc1-n1cnc(C)c1 (single isomer, unassigned; (+)) [Example 182A]
  IC50: 13 nM

## COc1cc(Nc2ncc3c(n2)N(C)[C@@H](COc2ccccc2)CO3)ccc1-n1cnc(C)c1 [Example 200]
  IC50: 30 nM

## COc1cc(Nc2ncc3c(n2)N(C)C(c2ccc(Cl)cc2C(F)(F)F)CO3)ccc1-n1cnc(C)c1 (single isomer, unassigned; (+)) [Example 112B]
  IC50: 64 nM

## Cc1cn(-c2ccc(Nc3ncc4c(n3)N(C)C(c3cc(F)c(F)cc3F)CO4)cc2F)cn1 (single isomer, unassigned; (-)) [Example 98B]
  IC50: 2100 nM

## Cc1cn(-c2ncc(Nc3ncc4c(n3)N(C)C(c3cc(F)cc(F)c3)CO4)cc2Cl)cn1 (single isomer, unassigned; (+)) [Example 210A]
  IC50: 41 nM

## Cc1cn(-c2ccc(Nc3ncc4c(n3)N(C)C(c3ccccc3Cl)CO4)cc2F)cn1 (single isomer, unassigned; (-)) [Example 67B]
  IC50: 643 nM

## COc1cc(Nc2ncc3c(n2)N(C)C(c2ccccc2C)CO3)ccc1-c1ccnc(C)c1 (single isomer, unassigned; (+)) [Example 35B]
  IC50: 35 nM

## COc1cc(Nc2ncc3c(n2)N(C)C(C(F)(F)F)CO3)ncc1-n1cnc(C)c1 (single isomer, unassigned; (+)) [Example 236A]
  IC50: > 3000 nM

## COc1cc(Nc2ncc3c(n2)N(C)C(C2COC2)CO3)cnc1-n1cnc(C)c1 (single isomer, unassigned; (+)) [Example 243A]
  IC50: 601 nM

## COc1cc(Nc2ncc3c(n2)N(C)[C@@H](C2CC2)CO3)ccc1-n1cnc(C)c1 [Example 224]
  IC50: 22 nM

## COc1cc(Nc2ncc3c(n2)N(C)C(c2ccc(Cl)cc2C(F)(F)F)CO3)ccc1-n1cnc(C)c1 (single isomer, unassigned; (-)) [Example 112A]
  IC50: 231 nM

## COc1ccc(C)c(C2COc3cnc(Nc4ccc(-n5cnc(C)c5)c(OC)c4)nc3N2C)c1 (single isomer, unassigned; (-)) [Example 175B]
  IC50: 95 nM

## COc1cc(Nc2ncc3c(n2)N(C)C(c2cc(Cl)ccc2C(F)(F)F)CO3)ccc1-n1cnc(C)c1 (single isomer, unassigned; (-)) [Example 165B]
  IC50: 79 nM

## COc1cc(Nc2ncc3c(n2)N(C)C(c2ccccc2Cl)CO3)ccc1-n1cnc(C)c1 (racemic) [Example 51]
  IC50: 32 nM

## COc1cc(Nc2ncc3c(n2)N2CCC(F)(F)C2CO3)cnc1-n1cnc(C)c1 (single isomer, unassigned; (-)) [Example 305B, (−)-7,7-difluoro-N-(5-methoxy-6-(4-methyl-1H-imidazol-1-yl)pyridin-3-yl)-6a, 7,8,9-tetrahydro-6H-pyrimido [5,4-b] pyrrolo [1,2-d] [1, 4] oxazin-2-amine]
  IC50: 582 nM

## COc1cc(Nc2ncc3c(n2)N(C)C(c2cc(F)c(F)cc2F)CO3)ccc1-n1cnc(C)c1 (single isomer, unassigned; (-)) [Example 97A]
  IC50: 244 nM

## Cc1cc(-c2ccc(Nc3ncc4c(n3)N(C)C(c3cc(F)cc(F)c3)CO4)cc2F)ccn1 (racemic) [Example 41]
  IC50: 63 nM

## COc1cc(Nc2ncc3c(n2)N(C)C(C2CCC(F)(F)CC2)CO3)cnc1-n1cnc(C)c1 (single isomer, unassigned; (-)) [Example 221B]
  IC50: 325 nM

## Cc1cn(-c2ccc(Nc3ncc4c(n3)N(C)C(c3ccc(F)cc3F)CO4)cc2F)cn1 (single isomer, unassigned; (+)) [Example 69A]
  IC50: 69 nM

## Cc1cc(-c2ccc(Nc3ncc4c(n3)N(C)C(c3ccccc3)CO4)cc2)ccn1 (single isomer, unassigned; (-)) [Example 24B]
  IC50: 1020 nM

## COc1cc(Nc2ncc3c(n2)N(C)C(c2ccc(C(F)(F)F)cc2C(F)(F)F)CO3)ccc1-n1cnc(C)c1 (single isomer, unassigned; (-)) [Example 168A]
  IC50: 566 nM

## Cc1cc(-c2ccc(Nc3ncc4c(n3)N(C)C(c3ccccc3)CO4)cc2)ccn1 (racemic) [Example 24]
  IC50: 155 nM

## COc1cc(Nc2ncc3c(n2)N(C)C(c2ccc(C(F)(F)F)cc2C(F)(F)F)CO3)ccc1-n1cnc(C)c1 (racemic) [Example 91]
  IC50: 110 nM

## COc1cc(Nc2ncc3c(n2)N(C)C(c2ccccc2Cl)CO3)ccc1-c1ccnc(C)c1 (single isomer, unassigned; (+)) [Example 85B]
  IC50: 130 nM

## COc1cc(Nc2ncc3c(n2)N(C)C(c2cc(C(F)(F)F)ccc2Cl)CO3)ccc1-n1cnc(C)c1 (racemic) [Example 88]
  IC50: 39 nM

## COc1cc(Nc2ncc3c(n2)N(C)C(c2cc(C(F)(F)F)ccc2Cl)CO3)ccc1-n1cnc(C)c1 (single isomer, unassigned; (+)) [Example 88A]
  IC50: 37 nM

## Cc1cn(-c2ccc(Nc3ncc4c(n3)N(C)C(c3cc(F)c(F)c(F)c3)CO4)cc2F)cn1 (single isomer, unassigned; (+)) [Example 118A]
  IC50: 29 nM

## COc1ccc(C2COc3cnc(Nc4cnc(-n5cnc(C)c5)c(OC)c4)nc3N2C)c(Cl)c1 (single isomer, unassigned; (-)) [Example 209B]
  IC50: 55 nM

## Cc1cn(-c2ccc(Nc3ncc4c(n3)N(C)C(c3ccccc3C)CO4)cc2)cn1 (single isomer, unassigned; (-)) [Example 43B]
  IC50: > 300 nM

## Cc1cc(-c2ccc(Nc3ncc4c(n3)N(C)C(c3cc(F)cc(F)c3)CO4)cc2)ccn1 (single isomer, unassigned; (-)) [Example 28A]
  IC50: 1960 nM
